Assay results reported in patent publication US9255107B2 (NANJING SANHOME PHARMACEUTICAL CO., LTD., priority 2012, dated 2016).
Structures can show the parent of a compound that is named as a salt. Where two headings read alike, the source gives them in different places.

Key:
[1] = system: MDA-MB-231 human breast cancer cells; experiment: MTT assay, in vitro inhibitory activity on cells; assay type: cell-based; details: typically 48 hours
From the text: (§1) In this example, MTT assay was used to detect in vitro inhibitory activity of the compounds prepared according to the above examples on the cells.
(§2) Dimethyl sulfoxide (DMSO) is capable of dissolving formazan in cells, and absorbance value can be measured at a wavelength of 490 nm by an enzyme-linked immunometric meter, which reflects the number of living cells. Within a certain range of the number of cells, the amount of MTT crystals formed is proportional to the number of living cells.
(§3) 2. Culturing in a 37° C., 5% CO2 incubator and keeping the cells adhering to the walls of the wells.
(§4) 4. Carefully removing the supernatant, gently washing with PBS and discarding the supernatant again.
(§5) 6. Terminating culturing and carefully discarding the medium in each well. 7. Adding 150 μl dimethyl sulfoxide into each well, shaking for 10 minutes at low speed in a shaker, to make crystals fully dissolved.
(§6) 8. Measuring the absorbance of each well at 490 nm by an enzyme-linked immunometric meter.

[2] = system: K562 leukemia cells; experiment: MTT assay, in vitro inhibitory activity on cells; assay type: cell-based; details: Homo sapiens, typically 48 hours, read-out: IC50 K562 Chronic myelogenous leukemia cells
From the text: as §1, §2, §3, §4, §5, §6

[3] = system: Saos-2 human osteosarcoma cells; experiment: MTT assay, in vitro inhibitory activity on cells; assay type: cell-based; details: typically 48 hours
From the text: as §1, §2, §3, §4, §5, §6

[4] = system: Ovcar-3 human ovarian cancer cells; experiment: MTT assay, in vitro inhibitory activity on cells; assay type: cell-based; details: typically 48 hours
From the text: as §1, §2, §3, §4, §5, §6

[5] = Pharmacokinetic studies in male SD rats; assay type: in vivo; details: rat, plasma; for MRT inf: read-out: MRT(0-∞)
Method: The compound prepared in Example 27 of the present invention was illustratively selected for this experiment. The pharmaceutical formulation for oral administration was made by dissolving the compound in physiological saline to prepare 3 mg/ml of suspension. The pharmaceutical formulation for caudal vein injection was made by using a mixed solution of DMSO, polyoxyethylene castor oil and physiological saline in the volume ratio of 1:30:69 to prepare 2.5 mg/ml of solution.
Male SD rats, each group of three, weighing 150 g-250 g, were provided by Shanghai SIPPR-BK Laboratory Animal Co. Ltd., China. The tested rats were acclimatized to the environment for 2-4 days prior to the experiment, and fasted for 8-12 hours before administration. The rats drank water freely 2 hours after administration, and were fed food 4 hours after administration.
1) Taking blank plasma (zero-hour sample) after the SD rats were fasted but allowed drinking water freely for 12 hours;
2) Administering to three rats in Step 1) the compound prepared in Example 27 at 15 mg/kg by gavage (Intragastric administration, IG);
administering to another three rats in Step 1) the compound prepared in Example 27 at 3 mg/kg by caudal vein (Intravenous administration, IV);
(§7) 3) Collecting sequentially blood from retinal venous plexus of the rats at 10 min, 30 min, 1 h, 2 h, 4 h, 6 h, 8 h, 10 h, 24 h after gavage administration, placing into the heparin-coated EP tubes, taking the upper plasma after centrifuging for 5 min at 8000 rpm/min, and storing at −20° C. until LC-MS/MS analysis;
4) Calculating the pharmacokinetic parameters using WinNonlin software according to the blood concentration—time data obtained from Step 3), shown in Table 4;
as §7, with “5)” for “3)”, “5 min, 15” for “10”, “h,” for “h, 6 h,”, “8” for “8 h, 10”, “caudal vein” for “gavage”
6) Calculating the pharmacokinetic parameters using WinNonlin software according to the blood concentration—time data obtained from Step 5), shown in Table 4.

Row | IC50 [1] | IC50 [2] | IC50 [3] | IC50 [4] | SMILES | further results
1 | 560 nM | 370 nM | – | – | Cc1ccc(NC(=O)c2ccc(CN3CCN(CCO)CC3)c(C(F)(F)F)c2)cc1C#Cc1cn(C)c(-c2ncc(C(F)(F)F)[nH]2)n1 [Example 15] | –
2 | 980 nM | – | 640 nM | 3.98 µM | CNC(=O)c1cc(Oc2cc(NC(=O)c3ccc(F)c(C#Cc4cnc(-c5nc[nH]n5)n4C)c3)cc(C(F)(F)F)c2)ccn1 [Example 17, 4-fluoro-3-[1-methyl-2-([1,2,4]-1H-triazol-3-yl)imidazol-5-yl]ethynyl-N-[3-trifluoromethyl-5-(2-N-methylcarbamoylpyridin-4-yl)oxy]phenylbenzamide] | –
3 | – | 5070 nM | – | – | CNc1nc2cc(C#Cc3cc(NC(=O)Nc4ccc(CN5CCN(C)CC5)c(C(F)(F)F)c4)ccc3C)ccn2n1 [Example 7] | –
4 | 2790 nM | 4130 nM | – | – | Cc1ccc(NC(=O)Nc2ccc(CN3CCN(C)CC3)c(C(F)(F)F)c2)cc1C#Cc1cnc2[nH]ncc2c1 [Example 1, N-[3-((1H-pyrazolo[3,4-b]pyridin-5-yl)ethynyl)-4-methylphenyl]-N′-[4-((4-methylpiperazin-1-yl)methyl)-3-trifluoromethylphenyl]urea] | –
5 | 1170 nM | 940 nM | – | – | Cc1cn(-c2cc(C(=O)Nc3ccc(F)c(C#Cc4ccc(-c5ncc(C(F)(F)F)[nH]5)nc4)c3)cc(C(F)(F)F)c2)cn1 [Example 24, 3-trifluoromethyl-5-(4-methylimidazol-1-yl)-N-[3-(2-(5-trifluoromethyl-1H-imidazol-2-yl)pyridin-5-yl)ethynyl-4-fluorophenyl]-benzamide] | –
6 | – | 3310 nM | – | – | Cc1ccc(NC(=O)Nc2ccc(CN3CCN(C)CC3)c(C(F)(F)F)c2)cc1C#Cc1ccc(-c2ncc(C#N)[nH]2)nc1 [Example 23, N-[3-(2-(5-acetonitrile-1H-imidazol-2-yl)pyridin-5-yl)ethynyl-4-methylphenyl]-N′-[3-trifluoromethyl-4-(4-methylpiperazin-1-ylmethyl)phenyl]urea] | –
7 | 1150 nM | 4070 nM | – | – | Cc1ccc(C(=O)Nc2ccc(CN3CC[C@H](N(C)C)C3)c(C(F)(F)F)c2)cc1C#Cc1ccc(-c2ncc(F)[nH]2)nc1 [Example 22, 4-methyl-3-((2-(5-fluoro-1H-imidazol-2-yl)pyridin-5-yl)ethynyl)-N-[(S)-4-((3-dimethylaminotetrahydropyrrol-1-yl)methyl)-3-trifluoromethylphenyl]benzamide] | –
8 | 110 nM | 2060 nM | 270 nM | 3.09 µM | Cc1ccc(NC(=O)Nc2ccc(CN3CCN(C)CC3)c(C(F)(F)F)c2)cc1C#Cc1cnc2[nH]ccc2n1 [Example 2, N-[3-((1H-pyrrolo[2,3-b]pyrazin-5-yl)ethynyl)-4-methylphenyl]-N′-[4-((4-methylpiperazin-1-yl)methyl)-3-trifluoromethylphenyl]urea] | –
9 | 2060 nM | 3590 nM | – | – | Cc1ccc(NC(=O)c2ccc(CN3CCN(C)CC3)cc2)cc1C#Cc1ccc(-c2ncc(C#N)[nH]2)nc1 [Example 21] | –
10 | 360 nM | 3140 nM | 2680 nM | 10.1 µM | Cc1ccc(C(=O)Nc2ccc(CN3CCN(C)CC3)c(C(F)(F)F)c2)cc1C#Cc1cn(C)c(-c2ncc([N+](=O)[O-])[nH]2)n1 [Example 11, 4-methyl-3-((1-methyl-5′-nitro-1H,1′H-[2,2′-diimidazol]-4-yl)ethynyl)-N-[4-((4-methylpiperazin-1-yl)methyl)-3-trifluoromethylphenyl]benzamide] | –

The remaining lines, values behind:

Row | SMILES | IC50 [1] | IC50 [2] | IC50 [3] | IC50 [4] | further results
11 | Cc1ccc(C(=O)Nc2ccc(CN3CCN(C)CC3)c(C(F)(F)F)c2)cc1C#Cc1cn(C)c(-c2ncc[nH]2)n1 [Example 10, 4-methyl-3-((1-methyl-1H,1′H-[2,2′-diimidazol]-4-yl)ethynyl)-N-[4-((4-methylpiperazin-1-yl)methyl)-3-trifluoromethylphenyl]benzamide] | 1420 nM | 1920 nM | 870 nM | 3.19 µM | –
12 | Cc1ccc(C(=O)Nc2ccc(CN3CCN(C)CC3)c(C(F)(F)F)c2)cc1C#Cc1ccc(-c2nc[nH]n2)nc1 [Example 25, 4-methyl-3-((2-(1,2,4-triazol-3-yl)pyridin-5-yl)ethynyl)-N-[4-((4-methylpiperazin-1-yl)methyl)-3-trifluoromethylphenyl]benzamide] | 2860 nM | 3580 nM | – | – | –
13 | Cc1ccc(C(=O)Nc2ccc(CN3CC[C@@H](N(C)C)C3)c(C(F)(F)F)c2)cc1C#Cc1ccc(-c2ncc(C(F)(F)F)[nH]2)nc1 [Example 20, 4-methyl-3-((2-(5-trifluoromethyl-1H-imidazol-2-yl)pyridin-5-yl)ethynyl)-N—[(R)-4-((3-dimethylaminotetrahydropyrrol-1-yl)methyl)-3-trifluoromethylphenyl]benzamide] | 4720 nM | 2210 nM | – | – | –
14 | Cc1ccc(NC(=O)Nc2ccc(CN3CCN(C)CC3)c(C(F)(F)F)c2)cc1C#Cc1cn(C)c(-c2ncc(C(F)(F)F)[nH]2)n1 [Example 14, N-[4-methyl-3-((1-methyl-5′-trifluoromethyl-1H,1′H-[2,2′-diimidazol]-4-yl)ethynyl)phenyl]-N′-[4-((4-methylpiperazin-1-yl)methyl)-3-trifluoromethylphenyl]urea] | 1210 nM | 160 nM | – | – | –
15 | Cc1ccc(C(=O)Nc2ccc(CN3CCN(C)CC3)c(C(F)(F)F)c2)cc1C#Cc1cnc2[nH]ccc2n1 [Example 27, hydrochloride] | – | – | – | – | AUC(0-inf) ([5]; iv, I.V. 3 mg/kg): 3380 ng·h/mL; AUC(0-t) ([5]; iv, I.V. 3 mg/kg): 3300 ng·h/mL; Cmax ([5]; iv, I.V. 3 mg/kg): 1270 ng/mL; half-life ([5]; iv, I.V. 3 mg/kg): 296 min; MRT inf ([5]; iv, I.V. 3 mg/kg): 4.92 h; bioavailability ([5]; oral, I.G. 15 mg/kg vs I.V. 3 mg/kg, read-out: F (oral bioavailability)): 32.6%; AUC(0-inf) ([5]; po, I.G. 15 mg/kg): 5220 ng·h/mL; AUC(0-t) ([5]; po, I.G. 15 mg/kg): 5370 ng·h/mL; Cmax ([5]; po, I.G. 15 mg/kg): 376 ng/mL; Tmax ([5]; po, I.G. 15 mg/kg): 7.33 h; half-life ([5]; po, I.G. 15 mg/kg): 246 min; MRT inf ([5]; po, I.G. 15 mg/kg): 7.71 h
16 | Cc1cnc(-c2nc(C#Cc3cc(C(=O)Nc4ccc(CN5CCN(CCO)CC5)c(C(F)(F)F)c4)ccc3C)cn2C)[nH]1 [Example 12, 4-methyl-3-((1-methyl-5′-methyl-1H,1′H-[2,2′-diimidazol]-4-yl)ethynyl)-N-[4-((4-hydroxyethylpiperazin-1-yl)methyl)-3-trifluoromethylphenyl]benzamide] | 1270 nM | 2310 nM | 5730 nM | 4.06 µM | –
17 | Cc1ccc(NC(=O)Nc2ccc(CN3CC[C@@H](N(C)C)C3)c(F)c2)cc1C#Cc1cn(C)c(-c2ncc(C(F)(F)F)[nH]2)n1 [Example 13, N-[4-methyl-3-((1-methyl-5′-trifluoromethyl-1H,1′H-[2,2′-diimidazol]-4-yl)ethynyl)phenyl]-N′—(R)-[4-((3-dimethylaminotetrahydropyrrol-1-yl)methyl)-3-fluorophenyl]urea] | 290 nM | 520 nM | – | – | –
18 | Cc1ccc(NC(=O)Nc2ccc(CN3CCN(C)CC3)c(C(F)(F)F)c2)cc1C#Cc1ccn2nc(N(C)C)nc2c1 [Example 8] | – | 420 nM | – | – | –
19 | Cc1cn(-c2cc(NC(=O)c3ccc(F)c(C#Cc4cnc(-c5nc[nH]n5)n4C)c3)cc(C(F)(F)F)c2)cn1 [Example 16, 3-[1-methyl-2-([1,2,4]-1H-triazol-3-yl)imidazol-5-yl]ethynyl-4-fluoro-N-[3-trifluoromethyl-5-(4-methylimidazol-1-yl)phenyl]benzamide] | 1270 nM | – | 1160 nM | 4.72 µM | –
20 | CNC(=O)c1cc(Oc2ccc(NC(=O)c3ccc(C)c(C#Cc4ccc(-c5nc[nH]n5)nc4)c3)cc2)ccn1 [Example 26, 4-methyl-3-[2-([1,2,4]-1H-triazol-3-yl)pyridin-5-yl]ethynyl-N-[(2-N-methylcarbamoylpyridin-4-yl)oxy]phenylbenzamide] | – | 5910 nM | – | – | –
